# Results published in the supplement of paper PMC11208160.
# Test: recombinant barcode read abundance after kanamycin selection (control-corrected) (log10(CPM+1)); higher = more efficient recombination; sequences stand for … in AGTGCAGAGAAAATCGGCCAGTTTTCTCTGCCTGCAGTCCGCATGCCGT…AGATTTATGCAGCGGACTGCCTTTCTCCCAAAGTGATAAACCGGACAGTATCATGGACCGGTTTTCCCGGTAATCCGTATTTGCAAGGTTGGTTTCACT; site = the 11-nt target
# Method in brief: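 Recombination efficiency draws on barcodes counted at recombinant junctions in a pooled E. coli screen of targets paired with IS621 bridge RNA target-binding loops. The counts were converted to counts per million, averaged and corrected against the chloramphenicol/ampicillin LB agar control, then reported as log10(CPM+1). Selection plates held chloramphenicol/ampicillin/kanamycin with 0.1 mM IPTG, with two replicates per condition.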
# 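Note: IS621 recombinase and bridge RNA in Escherichia coli cells.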
row,Sequence,recombinant barcode read abundance (log10)
1,CCTACATCTTGGGTTCTAACCTGTTGCCT (site CCTACATCTAG),0.123
2,CCTACTCCTTGGGTTCTAACCTGTTGCAG (site CCTACTACTCG),0.0435
3,CCTACTCCTTGGGTTCTAACCTGTTGCAG (site CCTACTCCTCT),0.0147
4,CCTATCCCTTGGGTTCTAACCTGTTGCCT (site CCTATCCCTAG),1.32
5,CCTATCCCTTGGGTTCTAACCTGTTGCCT (site CCTTTCACTAG),0.311
6,CCTCAATCTTGGGTTCTAACCTGTTGCTT (site CCTCAATCTAA),0.224
7,CCTCAATCTTGGGTTCTAACCTGTTGCTT (site CCTCACTCTAA),0.0745
8,CCTCAATCTTGGGTTCTAACCTGTTGCTT (site CCTCAGTCTAA),0.0516
9,CCTCAATCTTGGGTTCTAACCTGTTGCTT (site CCTCATTCTAA),0.144
10,CCTCACTCTTGGGTTCTAACCTGTTGCTT (site CCTCAATCTAA),0.058
11,CCTCACTCTTGGGTTCTAACCTGTTGCTT (site CCTCACTCTAA),1.2
12,CCTCACTCTTGGGTTCTAACCTGTTGCTT (site CCTCAGTCTAA),0.00592
13,CCTCACTCTTGGGTTCTAACCTGTTGCTT (site CCTCATTCTAA),0.0602
14,CCTCAGACTTGGGTTCTAACCTGTTGCGA (site CCTCAGACTTC),2.79
15,CCTCAGACTTGGGTTCTAACCTGTTGCGA (site CTTCAGACTTA),0.0629
16,CCTCAGGCTTGGGTTCTAACCTGTTGCCA (site CCTCAGGCTAG),0.312
17,CCTCAGGCTTGGGTTCTAACCTGTTGCCA (site CCTCAGGCTCG),0.0454
18,CCTCAGGCTTGGGTTCTAACCTGTTGCCA (site CCTCAGGCTGG),0.217
19,CCTCAGGCTTGGGTTCTAACCTGTTGCCA (site CCTCAGGCTTG),0.323
20,CCTCAGGCTTGGGTTCTAACCTGTTGCCC (site CCTCAGGCTAG),0.0156
21,CCTCAGGCTTGGGTTCTAACCTGTTGCCC (site CCTCAGGCTCG),0.0734
22,CCTCAGGCTTGGGTTCTAACCTGTTGCCC (site CCTCAGGCTGG),0.651

row,Sequence,recombinant barcode read abundance (log10)
1,CCTCAGGCTTGGGTTCTAACCTGTTGCCC (site CCTCAGGCTTG),0.399
2,CCTCAGGCTTGGGTTCTAACCTGTTGCCG (site CCTCAGGCTAG),0.0315
3,CCTCAGGCTTGGGTTCTAACCTGTTGCCG (site CCTCAGGCTCG),0.229
4,CCTCAGGCTTGGGTTCTAACCTGTTGCCG (site CCTCAGGCTGG),0.107
5,CCTCAGGCTTGGGTTCTAACCTGTTGCCG (site CCTCAGGCTTG),0.125
6,CCTCAGTCTTGGGTTCTAACCTGTTGCGA (site CCTCACTCTCC),0.0773
7,CCTCAGTCTTGGGTTCTAACCTGTTGCGA (site CCTCAGTCTTC),1.81
8,CCTCATTCTTGGGTTCTAACCTGTTGCTT (site CCTCAATCTAA),0.0648
9,CCTCATTCTTGGGTTCTAACCTGTTGCTT (site CCTCACTCTAA),0
10,CCTCATTCTTGGGTTCTAACCTGTTGCTT (site CCTCAGTCTAA),0.142
11,CCTCATTCTTGGGTTCTAACCTGTTGCTT (site CCTCATTCTAA),0.199
12,CCTCTGGCTTGGGTTCTAACCTGTTGCCT (site CCGCTGTCTAG),0.808
13,CCTCTGGCTTGGGTTCTAACCTGTTGCCT (site CCTCTGGCTAG),0.514
14,CCTGACTCTTGGGTTCTAACCTGTTGCCT (site CCTGAATCTAG),0.088
15,CCTGACTCTTGGGTTCTAACCTGTTGCCT (site CCTGACTCTAG),0.85
16,CCTGACTCTTGGGTTCTAACCTGTTGCCT (site CCTGAGTCTAG),0.0146
17,CCTGACTCTTGGGTTCTAACCTGTTGCCT (site CCTGATTCTAG),0.195
18,CCTGCGACTTGGGTTCTAACCTGTTGCCT (site CCTGCGACTAG),0.408
19,CCTGCGACTTGGGTTCTAACCTGTTGCCT (site CCTGCGGCTAG),0.0687
20,CCTGCTCCTTGGGTTCTAACCTGTTGCTT (site CCTACTCCTAG),0.0276
21,CCTGCTCCTTGGGTTCTAACCTGTTGCTT (site CCTGCTCCTAA),0.393
22,CCTGGGACTTGGGTTCTAACCTGTTGCGA (site CCTGGGACTAC),0.0343

row,Sequence,recombinant barcode read abundance (log10)
1,CCTGGGACTTGGGTTCTAACCTGTTGCGA (site CCTGGGACTCC),0.256
2,CCTGGGACTTGGGTTCTAACCTGTTGCGA (site CCTGGGACTGC),0.961
3,CCTGGGACTTGGGTTCTAACCTGTTGCGA (site CCTGGGACTTC),2.58
4,CCTGGTCCTTGGGTTCTAACCTGTTGCCT (site CCTGGGGCTAG),0.16
5,CCTGGTCCTTGGGTTCTAACCTGTTGCCT (site CCTGGTCCTAG),1.56
6,CCTTAGACTTGGGTTCTAACCTGTTGCGT (site CCTAATACTAC),0.107
7,CCTTAGACTTGGGTTCTAACCTGTTGCGT (site CCTTAGACTAC),1.8
8,CCTTCTACTTGGGTTCTAACCTGTTGCCT (site CCTTCTACTAG),0.225
9,CCTTCTACTTGGGTTCTAACCTGTTGCCT (site CCTTCTACTTA),0
10,CCTTGCCCTTGGGTTCTAACCTGTTGCCT (site CATTGCCCTAG),0.0176
11,CCTTGCCCTTGGGTTCTAACCTGTTGCCT (site CCTTGCCCTAG),0.667
12,CCTTGCCCTTGGGTTCTAACCTGTTGCCT (site CGTTGCCCTAG),0.1
13,CCTTGCCCTTGGGTTCTAACCTGTTGCCT (site CTTTGCCCTAG),0.117
14,CCTTGTCCTTGGGTTCTAACCTGTTGCAG (site CCTTGTCCTCT),0.79
15,CCTTGTCCTTGGGTTCTAACCTGTTGCAG (site CGTTGTCCTTT),0.144
16,CCTTGTGCTTGGGTTCTAACCTGTTGCGT (site CCTTGTGCTAC),0.158
17,CCTTGTGCTTGGGTTCTAACCTGTTGCGT (site TAGGTATCTCT),0.0915
18,CCTTGTTCTTGGGTTCTAACCTGTTGCCT (site ACTTGTTCTAG),0.105
19,CCTTGTTCTTGGGTTCTAACCTGTTGCCT (site CCTTGTTCTAG),0.0314
20,CCTTGTTCTTGGGTTCTAACCTGTTGCCT (site GCTTGTTCTAG),0.14
21,CCTTGTTCTTGGGTTCTAACCTGTTGCCT (site TCTTGTTCTAG),0.0322
22,CCTTGTTCTTGGGTTCTAACCTGTTGCTA (site CCTTGTTCTTA),0.113
